Measurements taken from US9212163B2, “Pesticidal compositions and processes related thereto” (Dow AgroSciences LLC, priority 2012, dated 2015).

The compounds below were run on Beet Armyworm (BAW) (Spodoptera exigua) (assay: Bioassay on Beet Armyworm (BAW), 128-well diet tray assay). Settings: Table 3: Assay Results Part 1.
Format: in vivo
Experimental: Certain molecules disclosed in this document were tested against BAW, CEW and CL using procedures described in the following examples. In the reporting of the results, the “BAW & CEW & CL Rating Table” was used (See Table Section).
Bioassays on BAW (Spodoptera exigua)
Bioassays on BAW were conducted using a 128-well diet tray assay. One to five second instar BAW larvae were placed in each well (3 mL) of the diet tray that had been previously filled with 1 mL of artificial diet to which 50 μg/cm^2 of the test compound (dissolved in 50 μL of 90:10 acetone-water mixture) had been applied (to each of eight wells) and then allowed to dry. Trays were covered with a clear self-adhesive cover, and held at 25° C., 14:10 light-dark for five to seven days. Percent mortality was recorded for the larvae in each well; activity in the eight wells was then averaged. The results are indicated in the tables entitled “Table 3: Assay Results Part 1” and “Table 4: Assay Results Part 2” (See Table Section).

| Structure (SMILES) | BAW Rating |
| --- | --- |
| FC(F)(F)C(/C=C/c1ccc(-n2cncn2)cc1Cl)c1cc(Cl)cc(Cl)c1 (stereo not drawn) [DC67] | A (50-100) |
| O=C(NC1CS(=O)(=O)C1)c1ccc(/C=C/C(c2cc(Cl)c(Cl)c(Cl)c2)C(F)(F)F)cc1Br (stereo not drawn) [AC33] | A (50-100) |
| O=C(NCc1ccc(Cl)nc1)c1ccc(/C=C/C(c2cc(Cl)c(Cl)c(Cl)c2)C(F)(F)F)cc1C(F)(F)F (stereo not drawn) [AC36] | A (50-100) |
| CCNC(=O)NCc1ccc(/C=C/C(c2cc(Cl)cc(Cl)c2)C(F)(F)F)cc1Cl (stereo not drawn) [CC31, (E)-1-(2-Chloro-4-(3-(3,5-dichlorophenyl)-4,4,4-trifluorobut-1-en-1-yl)benzyl)-3-ethylurea] | B (More than 0-Less than 50) |
| O=C(CC(F)(F)F)NCc1ccc(/C=C/C(c2ccc(Cl)c(Cl)c2)C(F)(F)F)cc1Cl (stereo not drawn) [CC18] | A (50-100) |
| O=C(CNC(=O)c1ccc(/C=C/C(c2cc(Cl)cc(Cl)c2)C(F)(F)F)cc1F)NCC(F)(F)F (stereo not drawn) [AC62] | A (50-100) |
| Cc1cc(/C=C/C(c2cc(Cl)cc(Cl)c2)C(F)(F)F)ccc1C(=O)NCc1nnc(C2CC2)o1 (stereo not drawn) [AC89, (E)-N-((5-Cyclopropyl-1,3,4-oxadiazol-2-yl)methyl)-4-(3-(3,5-dichlorophenyl)-4,4,4-trifluorobut-1-en-1-yl)-2-methylbenzamide] | A (50-100) |
| O=C(NC1CSC1)c1ccc(/C=C/C(c2cc(Cl)c(Cl)c(Cl)c2)C(F)(F)F)cc1Cl (stereo not drawn) [AC29] | A (50-100) |
| Fc1ccc(C(/C=C/c2ccc(-n3cncn3)cc2)C(F)(F)F)cc1 (stereo not drawn) [DC7] | A (50-100) |
| CCNC(=O)NCc1ccc(/C=C/C(c2cc(Cl)c(Cl)c(Cl)c2)C(F)(F)F)cc1C(F)(F)F (stereo not drawn) [CC32] | A (50-100) |
| N#Cc1cc(/C=C/C(c2cc(Cl)c(Cl)c(Cl)c2)C(F)(F)F)ccc1-n1cnc(NC(=O)C2CC2)n1 (stereo not drawn) [DC43, (E)-N-(1-(2-Cyano-4-(4,4,4-trifluoro-3-(3,4,5-trichlorophenyl)but-1-en-1-yl)phenyl)-1H-1,2,4-triazol-3-yl)cyclopropanecarboxamide] | A (50-100) |
| N#Cc1cc(/C=C/C(c2cc(Cl)c(Cl)c(Cl)c2)C(F)(F)F)ccc1-n1cnc([N+](=O)[O-])n1 (stereo not drawn) [DC40, (E)-2-(3-Nitro-1H-1,2,4-triazol-1-yl)-5-(4,4,4-trifluoro-3-(3,4,5-trichlorophenyl)but-1-en-1-yl)benzonitrile] | A (50-100) |
| O=C(NC1CSC1)c1ccc(/C=C/C(c2cc(Cl)c(Cl)c(Cl)c2)C(F)(F)F)cc1C(F)(F)F (stereo not drawn) [AC34] | A (50-100) |
| Cc1cc(/C=C/C(c2cc(Cl)c(F)c(Cl)c2)C(F)(F)F)ccc1C(=O)NCc1ccnc(Cl)c1 (stereo not drawn) [AC54] | A (50-100) |
| O=C(NCc1ccc(/C=C/C(c2cc(Cl)c(Cl)c(Cl)c2)C(F)(F)F)cc1F)C1CC1 (stereo not drawn) [CC28] | A (50-100) |
| Cc1cc(/C=C/C(c2cc(Cl)c(F)c(Cl)c2)C(F)(F)F)ccc1C(=O)NCc1ccc(Cl)nc1 (stereo not drawn) [AC38] | A (50-100) |
| N#Cc1cc(/C=C/C(c2cc(Cl)cc(C(F)(F)F)c2)C(F)(F)F)ccc1-n1cncn1 (stereo not drawn) [DC33] | A (50-100) |
| Cc1cc(/C=C/C(c2ccc(Cl)c(Cl)c2)C(F)(F)F)ccc1C(=O)NCc1ccc(Cl)nc1 (stereo not drawn) [AC37] | A (50-100) |
| CC(=O)Nc1ncn(-c2ccc(/C=C/C(c3cc(Cl)cc(Cl)c3)C(F)(F)F)cc2C#N)n1 (stereo not drawn) [DC39] | A (50-100) |
| CCc1cc(/C=C/C(c2cc(Cl)c(F)c(Cl)c2)C(F)(F)F)ccc1C(=O)NC1CS(=O)(=O)C1 (stereo not drawn) [AC86] | A (50-100) |
| Fc1cc(/C=C/C(c2cc(Cl)cc(Cl)c2)C(F)(F)F)ccc1-n1cncn1 (stereo not drawn) [DC48] | A (50-100) |
| O=C(CC(F)(F)F)NCc1ccc(/C=C/C(c2cc(Cl)cc(Cl)c2)C(F)(F)F)cc1 (stereo not drawn) [CC3] | A (50-100) |
| O=C(CC(F)(F)F)NC1CCc2cc(/C=C/C(c3cc(Cl)c(F)c(Cl)c3)C(F)(F)F)ccc21 (stereo not drawn) [BC8] | A (50-100) |

| Structure (SMILES) | BAW Rating |
| --- | --- |
| Cc1cc(/C=C/C(c2cc(Cl)cc(Cl)c2)C(F)(F)F)ccc1C(=O)NCc1ncccn1 (stereo not drawn) [AC18] | A (50-100) |
| O=C(CC(F)(F)F)NCc1ccc(/C=C/C(c2cc(Cl)c(Cl)c(Cl)c2)C(F)(F)F)cc1F (stereo not drawn) [CC27] | A (50-100) |
| O=C(CC(F)(F)F)NC1CCCc2cc(/C=C/C(c3cc(Cl)c(Cl)c(Cl)c3)C(F)(F)F)ccc21 (stereo not drawn) [BC5] | A (50-100) |
| Cc1cc(/C=C/C(c2cc(Cl)cc(Cl)c2)C(F)(F)F)ccc1-n1cncn1 (stereo not drawn) [DC62] | A (50-100) |
| O=C(NCc1ccc(/C=C/C(c2cc(Cl)c(Cl)c(Cl)c2)C(F)(F)F)cc1)C1CC1 (stereo not drawn) [CC5] | A (50-100) |
| C/C(=C\C(c1cc(Cl)cc(Cl)c1)C(F)(F)F)c1ccc(-n2cncn2)cc1 (stereo not drawn) [DC68, (E)-1-(4-(4-(3,5-Dichlorophenyl)-5,5,5-trifluoropent-2-en-2-yl)phenyl)-1H-1,2,4-triazole] | A (50-100) |
| C=CCNC(=O)CNC(=O)c1ccc(/C=C/C(c2cc(Cl)c(Cl)c(Cl)c2)C(F)(F)F)cc1Br (stereo not drawn) [AC111] | A (50-100) |
| O=C(CC(F)(F)F)NCc1ccc(/C=C\C(c2cc(Cl)c(Cl)c(Cl)c2)C(F)(F)F)cc1 (stereo not drawn) [CC54, (Z)-3,3,3-Trifluoro-N-(4-(4,4,4-trifluoro-3-(3,4,5-trichlorophenyl)but-1-en-1-yl)benzyl)propanamide] | A (50-100) |
| Cc1cc(/C=C/C(c2cc(Cl)c(Cl)c(Cl)c2)C(F)(F)F)ccc1C(=O)NC1CSC1 (stereo not drawn) [AC23] | A (50-100) |
| CCc1cc(/C=C/C(c2cc(Cl)c(F)c(Cl)c2)C(F)(F)F)ccc1C(=O)NCC(=O)NCC(F)(F)F (stereo not drawn) [AC80] | A (50-100) |
| COc1cc(/C=C/C(c2cc(Cl)c(F)c(Cl)c2)C(F)(F)F)ccc1C(=O)NC1CS(=O)(=O)C1 (stereo not drawn) [AC85] | A (50-100) |
| O=C(CNC(=O)c1ccc(/C=C/C(c2cc(Cl)c(Cl)c(Cl)c2)C(F)(F)F)cc1Cl)NCC(F)(F)F (stereo not drawn) [AC64, (E)-2-Chloro-N-(2-oxo-2-((2,2,2-trifluoroethyl)amino)ethyl)-4-(4,4,4-trifluoro-3-(3,4,5-trichlorophenyl)but-1-en-1-yl)benzamide] | A (50-100) |
| O=C(CNC(=O)c1ccc(/C=C/C(c2cc(Cl)c(Cl)c(Cl)c2)C(F)(F)F)cc1Br)NCC(F)(F)F (stereo not drawn) [AC66] | A (50-100) |
| FC(F)(F)C(/C=C/c1ccc(-n2cncn2)c(Br)c1)c1cc(Cl)cc(Cl)c1 (stereo not drawn) [DC47] | A (50-100) |
| Cc1cc(/C=C/C(c2cc(Cl)cc(Cl)c2)C(F)(F)F)ccc1C(=O)NNc1ccccc1F (stereo not drawn) [AC17] | A (50-100) |
| Cc1cc(/C=C/C(c2cc(Cl)c(Cl)c(Cl)c2)C(F)(F)F)ccc1C(=O)NCC(=O)NCC(F)(F)F (stereo not drawn) [AC78] | A (50-100) |
| FC(F)(F)C(/C=C/c1ccc(CNC(=S)C2CC2)c(Cl)c1)c1cc(Cl)c(Cl)c(Cl)c1 (stereo not drawn) [CC20] | A (50-100) |
| O=C(NCc1ncc(/C=C/C(c2cc(Cl)c(Cl)c(Cl)c2)C(F)(F)F)cc1Cl)C1CC1 (stereo not drawn) [CC45] | A (50-100) |
| FC(F)(F)C(/C=C/c1ccc(-n2cncn2)cc1)c1ccc(Cl)cc1 (stereo not drawn) [DC4] | A (50-100) |
| O=C(CC(F)(F)F)NCc1ccc(/C=C/C(c2cc(Cl)c(Cl)c(Cl)c2)C(F)(F)F)cc1C(F)(F)F (stereo not drawn) [CC24] | A (50-100) |
| O=C(NC1CCCc2cc(/C=C/C(c3cc(Cl)c(Cl)c(Cl)c3)C(F)(F)F)ccc21)C1CC1 (stereo not drawn) [BC7] | A (50-100) |
| CCOC(=O)c1cc(/C=C/C(c2cc(Cl)cc(Cl)c2)C(F)(F)F)ccc1-n1cncn1 (stereo not drawn) [DC60] | A (50-100) |
